Assay results taken from patent US20190167660A1, “PPAR-gamma AGONIST FOR TREATMENT OF BONE DISORDERS” (InteKrin Therapeutics, Inc., priority 2016, published 2019).

Assays:
adiponectin [1] = assay: randomized, double-blind, placebo-controlled, 24-week study in subjects with type 2 diabetes: adiponectin levels; assay type: in vivo, human; conditions: for Mean Change in adiponectin from baseline (Week 0) to Week 24: LOCF, type 2 diabetes subjects
Experimental: A randomized, double-blind, placebo-controlled, 24-week study was conducted in which adiponectin levels were measured. […] 367 subjects with type 2 diabetes (TD2)—a disease in which patient adiponectin levels are reduced—were randomly assigned to receive either 0.5, 1, 2 or 3 milligrams (“mg”) of INT131 besylate, 45 mg of pioglitazone or placebo daily for 24 weeks. To measure adiponectin levels blood was drawn at Weeks 0, 2, 6, 12 and 24.
At baseline (Week 0) mean adiponectin levels were 1.94 micrograms per milliliter (“μg/mL”). The mean adiponectin levels at baseline and Week 24, and the mean change in adiponectin levels from baseline (Week 0) to Week 24 are disclosed in Table 1, below. The standard deviation for samples tested in each group is listed in (parenthesis). Mean baseline adiponectin values were similar for the treatment groups.

[2] = tested on: mesenchymal stem cells (MSCs); assay: differentiation of mesenchymal stem cells into osteoblasts / adipocytes; assay type: cell-based; conditions: no method described
adiponectin [3] = assay: 14-day study in healthy subjects: serum adiponectin levels; assay type: in vivo, human
Experimental: (§1) A study was conducted to determine the effect of INT131 on serum adiponectin levels. Thirty healthy subjects were randomly selected to receive either placebo, 0.1 mg INT131, 1 mg INT131 or 4 mg INT131 daily for 14 days. To measure adiponectin levels blood was drawn at Days 1, 4, 8 and 14.

HbA1c [4] = assay: 24-week study in subjects with type 2 diabetes: HbA1c levels; assay type: in vivo, human; conditions: 2 and 3 mg doses of INT131, daily for 24 weeks
[5] = DePaoli et al., Diabetes Care 2014; cited from earlier work
adiponectin [6] = assay: Example 3 (INT131 activates bone remodeling): 14-day study in healthy subjects; assay type: in vivo, human; conditions: 0.1 mg INT131 daily for 14 days
Experimental: as §1

diet-induced obese mice = conditions: 10 mg/kg of INT131, Lee et al. 2012; cited from earlier work
HbA1c [7] = conditions: DePaoli et al., Diabetes Care 2014; cited from earlier work
[8] = 0.1 mg INT131 daily for 14 days

CCc1ccc(CCOc2ccc(CC3SC(=O)NC3=O)cc2)nc1 (stereo not shown) [pioglitazone, reference compound]
Mean Change in adiponectin from baseline (Week 0) to Week 24 (adiponectin [1]; 45 mg pioglitazone daily): 2.96 µg/mL

O=S(=O)(Nc1cc(Cl)c(Oc2cnc3ccccc3c2)c(Cl)c1)c1ccc(Cl)cc1Cl [INT131]
differentiation of mesenchymal stem cells (MSCs) into osteoblasts [2]: promotes | increase of adipocytes [2]: does not result in an increase | change in adiponectin levels over placebo (adiponectin [3]; [8]): no significant change | change in serum adiponectin levels from Day 1 to Day 14 (adiponectin [3]; [8]): no significant change | change in serum adiponectin levels over placebo (adiponectin [3]; 1 mg or 4 mg INT131 daily for 14 days): significant change | reduction of HbA1c levels compared with 45 mg of pioglitazone (HbA1c [4]): at least as well | edema, weight gain and hemodilution compared with subjects taking pioglitazone [5]: less | Mean Change in adiponectin from baseline (Week 0) to Week 24 (adiponectin [1]; 0.5 mg INT131 besylate daily): 0.56 µg/mL | Mean Change in adiponectin from baseline (Week 0) to Week 24 (adiponectin [1]; 1 mg INT131 besylate daily): 1.28 µg/mL | treatment comparison with placebo, adiponectin levels (adiponectin [1]; 1 mg, 2 mg and 3 mg doses of INT131, p≤0.0109): statistically significant | Mean Change in adiponectin from baseline (Week 0) to Week 24 (adiponectin [1]; 2 mg INT131 besylate daily): 3.27 µg/mL | Mean Change in adiponectin from baseline (Week 0) to Week 24 (adiponectin [1]; 3 mg INT131 besylate daily): 3.83 µg/mL | change from Day 1 to Day 14 (sentence breaks off) (adiponectin [6]): no significant | effect on bone mass (diet-induced obese mice): does not affect bone mass | efficacy in reducing HbA1c levels compared with 45 mg of pioglitazone (HbA1c [7]): equally efficacious
